This assay is described as follows: The dark toxicity against 543 human galactophore carcinoma cells. In kind it is functional.

Some results are limits rather than exact numbers.

The term IC90 denotes the concentration at which the effect reaches the 90% level. Low values mean an effect from little substance, high ones a need for much substance. For `OC1c2cc3ccc([nH]3)c(-c3ccccc3)c3ccc(cc4nc(c(-c5ccccc5)c(n2)C1O)C=C4)[nH]3` (stereo unspecified), the IC90 is > 32 µg/mL.
